According to publication PMC4866600, “Structural basis for the blockade of MATE multidrug efflux pumps” (Nature Communications, 2015):

Columns and labels:
DinF-BH = molecular target: T1, DinF-BH (Halalkalibacterium halodurans (Bacillus halodurans), UniProt Q9KAX3); test: biochemical
T1 sequence (Q9KAX3 1-464): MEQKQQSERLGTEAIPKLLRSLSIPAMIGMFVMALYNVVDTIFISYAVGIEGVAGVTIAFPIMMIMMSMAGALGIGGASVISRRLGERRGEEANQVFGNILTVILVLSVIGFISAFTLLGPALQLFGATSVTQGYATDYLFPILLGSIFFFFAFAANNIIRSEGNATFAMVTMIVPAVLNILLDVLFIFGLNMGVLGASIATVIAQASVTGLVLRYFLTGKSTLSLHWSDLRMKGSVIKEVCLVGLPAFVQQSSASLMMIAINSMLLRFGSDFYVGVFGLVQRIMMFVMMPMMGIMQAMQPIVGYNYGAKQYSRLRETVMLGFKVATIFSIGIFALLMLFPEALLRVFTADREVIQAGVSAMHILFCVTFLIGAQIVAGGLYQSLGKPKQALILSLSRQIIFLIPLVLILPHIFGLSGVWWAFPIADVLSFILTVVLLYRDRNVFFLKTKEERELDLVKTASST
Experimental: (§1) [^3H]-R6G (2.7 Ci mmol^−1, 1.0 mCi ml^−1) was custom-synthesized by Moravek Biochemicals (Brea, California, USA). [^3H]-R6G binding assay was performed by using immobilized protein on Ni-NTA beads[31][42] as follows. Briefly, freshly purified protein (DinF-BH or NorM-NG) was mixed gently with pre-equilibrated Ni-NTA beads at 1 mg ml^−1 in buffers containing 20 mM Tris-HCl pH 8, 50 mM NaCl, 20% (v/v) glycerol, 0.02% (w/v) DDM, 1 mM TCEP (binding buffer) for >1 h at 4 °C. The mixture was centrifuged and the unbound material (supernatant) was discarded.
(§2) The beads were thoroughly washed, resuspended and aliquoted in the binding buffer. […] The samples were then transferred into micro-columns and centrifuged; the unbound material (flow-through) was discarded. The protein was eluted by using the binding buffer supplemented with 500 mM Imidazole. The radioactivity of the eluate was measured by liquid scintillation. […] All the experiments were performed in duplicate and repeated three times.

NorM-NG = NorM-NG (Neisseria gonorrhoeae, UniProt Q5F9J8); test: biochemical; type: binding
NorM-NG, sequence (Q5F9J8 entry or part of it): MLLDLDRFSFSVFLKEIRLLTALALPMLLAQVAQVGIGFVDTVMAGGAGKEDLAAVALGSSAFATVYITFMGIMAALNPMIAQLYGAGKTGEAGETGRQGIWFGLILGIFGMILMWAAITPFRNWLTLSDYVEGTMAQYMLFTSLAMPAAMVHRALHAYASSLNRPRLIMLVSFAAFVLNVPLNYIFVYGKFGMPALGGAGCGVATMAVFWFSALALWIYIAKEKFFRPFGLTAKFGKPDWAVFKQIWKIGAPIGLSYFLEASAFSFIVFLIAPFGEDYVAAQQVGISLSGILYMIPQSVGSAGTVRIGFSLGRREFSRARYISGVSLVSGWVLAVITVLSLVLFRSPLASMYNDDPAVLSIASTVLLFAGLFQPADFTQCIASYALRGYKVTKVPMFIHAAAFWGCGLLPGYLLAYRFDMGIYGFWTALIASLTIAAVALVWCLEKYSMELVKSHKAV
Experimental: as §1, §2

SMILES	Ki (DinF-BH)	Ki (NorM-NG)	Kd (DinF-BH)	Kd (NorM-NG)
CC[n+]1c(-c2ccccc2)c2cc(N)ccc2c2ccc(N)cc21 [ethidium]	< 25 µM	< 25 µM	–	–
CC/N=c1\cc2oc3cc(NCC)c(C)cc3c(-c3ccccc3C(=O)OCC)c-2cc1C [R6G, rhodamine 6G]	< 10 µM	< 10 µM	~5 µM	~5 µM
